# Results taken from patent US8133986B2, “Methylated CpG island amplification (MCA)” (The Johns Hopkins University School of Medicine, priority 1998, dated 2012).
# Columns and labels:
# Type in all cases: cell-based, human
# CACNA1G = assay: Re-expression of CACNA1G mRNA (RT-PCR) in methylated tumor cell lines after methyl-transferase inhibitor treatment; parameters: dose or concentration left out as unconfirmed; settings: RKO, SW48, Raji (pattern 4) and MB-231, MB-435 (pattern 5) cell lines; treated
# Description: To determine the expression of CACNA1G in normal and neoplastic human cells, RT-PCR was performed using cDNA from various normal tissues and from a panel of 27 tumor cell lines. CACNA1G was expressed ubiquitously in a variety of tissues and cell lines. In normal tissues expression was relatively low but easily detectable, while most cell lines had relatively high expression of CACNA1G. However, some cell lines had negligible or totally absent levels of CACNA1G expression. The results of CACNA1G expression was correlated with the detailed methylation analysis previously described. In this analysis, a remarkable pattern emerged. Methylation of region 1-4 and 8 had no effect on CACNA1G expression. However, there was a strong correlation between methylation of regions 5-7 and expression of the gene. In fact, all cell lines that lack methylation of this region strongly express the gene. All 6 cell lines with pattern 4 methylation studied had no detectable expression. Finally, the 7 cell lines with pattern 5 methylation (examples DLD-1 and MB-453) had variable levels of expression ranging from very low to near normal. […]
# Total RNA was prepared from normal colon epithelium and tumor cell lines using TRIZOL (GIBCO-BRL). […] The expression of versican was determined by RT-PCR using the primers
# versican = assay: RT-PCR expression of versican in methylated colon cancer cell lines after demethylating treatment; settings: 1 μM for 2-5 days
# From the text: To determine whether some of these clones truly represented genes silenced by methylation, we examined the versican gene in more detail. Versican is a secreted glycoprotein that appears to be regulated by the Rb tumor suppressor gene. MINT11 corresponds to part of exon 1 and part of intron 1 of the versican gene (FIG. 3A). Hypermethylation of the two SmaI sites in exon 1 and intron 1 in colon cancer cell lines was confirmed by both Southern blot analysis and MCA. In order to determine if this methylation was representative of the entire CGI, including the proximal promoter, PCR was performed on bisulfite-treated DNA using primers designed to amplify the region around the transcription start site of this gene. The PCR product was then digested with restriction enzymes that distinguish methylated from unmethylated DNA. […] In primary colon tumors, versican was hypermethylated in 17 out of 25 cases (68%). […] The level of methylation in normal colon mucosa increased with age of the patient (FIG. 3C), from an average of 6.9% in patients between 20 and 30 years of age, to an average of 28.9% in patients over 80. […] Using RT-PCR, we next examined the expression of versican in normal colon mucosa and CRC cell lines.
# Total RNA was prepared from normal colon epithelium and tumor cell lines using TRIZOL (GIBCO-BRL). […] The expression of versican was determined by RT-PCR using the primers […]
# [1] = system: region 7 of CACNA1G CpG island; assay: Bisulfite-PCR methylation analysis of the 5′ CpG island of CACNA1G after treatment; settings: same cell lines after treatment; bisulfite-PCR (FIG. 3C)
# From the text: The CACNA1G CpG island is 4 kb, and is larger than many typical CpG islands. MINT31 corresponds to the 5′ edge of the island while CACNA1G is in the 3′ region. It is not known whether large CpG islands such as this are coordinately regulated with regards to protection from methylation, and aberrant methylation in cancer. To address this issue, the methylation status of the 5′ region of CACNA1G was studied using bisulfite-PCR of DNA from normal tissues as well as 35 human cancer cell lines from colon, lung, prostate, breast and hematopoietic tumors. The CpG island was divided into 8 regions and their methylation status was examined separately. The genomic DNA was treated with sodium bisulfite and PCR amplified using primers containing no or a minimum number of CpG sites. Methylated alleles were detected by digesting the PCR products using restriction enzymes which specifically cleave sites created or retained due to the presence of methylated CpGs. None of the regions was methylated in normal colon, consistent with a uniform protection against de-novo methylation. […]
smiles,measurement,setting,value
"Nc1ncn([C@H]2C[C@H](O)[C@@H](CO)O2)c(=O)n1 [5-aza-deoxycytidine, 5-aza-2′-deoxycytidine]",CACNA1G mRNA expression,CACNA1G,re-expressed
same,Expression of versican,versican,easily restored
same,Methylation of region 7 of CACNA1G,[1],demethylation of region 7 was observed
